# Laboratory results: PubChem BioAssay (NCI)
#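 Each compound was tested at five concentrations against cells in 96-well plates for 48 hours. GI50 = concentration required for 50% inhibition of growth. TGI: concentration producing complete growth inhibition.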
# Assays:
# Assay in all cases: inhibition of tumour cell growth, NCI panel, 48 h
# [1] = test system: 786-0 renal
# [2] = test system: A498 renal
# [3] = test system: A549 NSCLC
# [4] = test system: ACHN renal
# [5] = test system: BT-549 breast
# [6] = test system: CAKI-1 renal
# [7] = test system: CCRF-CEM leukemia
# [8] = test system: COLO 205 colon
# [9] = test system: DU-145 prostate
# [10] = test system: EKVX NSCLC
# [11] = test system: HCC-2998 colon
# [12] = test system: HCT-116 colon
# [13] = test system: HCT-15 colon
# [14] = test system: HL-60(TB) leukemia
# [15] = test system: HOP-62 NSCLC
# [16] = test system: HOP-92 NSCLC
# [17] = test system: HS 578T breast
# [18] = test system: HT29 colon
# [19] = test system: IGROV1 ovarian
# [20] = test system: K-562 leukemia
# [21] = test system: KM12 colon
# [22] = test system: LOX IMVI melanoma
# [23] = test system: M14 melanoma
# [24] = test system: MALME-3M melanoma
# [25] = test system: MCF7 breast
# [26] = test system: MDA-MB-231 breast
# [27] = test system: MDA-MB-435
# [28] = test system: MOLT-4 leukemia
# [29] = test system: NCI-H226 lung
# [30] = test system: NCI-H23 lung
# [31] = test system: NCI-H460 lung
# [32] = test system: NCI-H522 lung
# [33] = test system: NCI/ADR-RES ovarian
# [34] = test system: OVCAR-3 ovarian
# [35] = test system: OVCAR-4 ovarian
# [36] = test system: OVCAR-5 ovarian
# [37] = test system: OVCAR-8 ovarian
# [38] = test system: PC-3 prostate
# [39] = test system: RPMI-8226 leukemia
# [40] = test system: RXF 393 renal
# [41] = test system: SF-268 CNS
# [42] = test system: SF-295 CNS
# [43] = test system: SF-539 CNS
# [44] = test system: SK-MEL-2 melanoma
# [45] = test system: SK-MEL-28 melanoma
# [46] = test system: SK-MEL-5 melanoma
# [47] = test system: SK-OV-3 ovarian
# [48] = test system: SN12C renal
# [49] = test system: SNB-19 CNS
# [50] = test system: SNB-75 CNS
# [51] = test system: SW-620 colon
# [52] = test system: T-47D breast
# [53] = test system: TK-10 renal
# [54] = test system: U251 CNS
# [55] = test system: UACC-257 melanoma
# [56] = test system: UACC-62 melanoma
# [57] = test system: UO-31 renal
smiles,measurement,setting,value
Cc1cc(Cl)ccc1OCc1nn2c(CCCCc3nnc4sc(COc5ccc(Cl)cc5C)nn34)nnc2s1,GI50,[1],26.7 µM
same,TGI,[1],55.5 µM
same,GI50,[2],1.67 µM
same,TGI,[2],8.21 µM
same,GI50,[3],27 µM
same,TGI,[3],> 100 µM
same,GI50,[4],34.1 µM
same,TGI,[4],> 100 µM
same,GI50,[5],11.6 µM
same,TGI,[5],51.8 µM
same,GI50,[6],4.52 µM
same,TGI,[6],> 55.3 µM
same,GI50,[7],33.7 µM
same,TGI,[7],> 61.6 µM
same,GI50,[8],43.5 µM
same,TGI,[8],> 100 µM
same,GI50,[9],13.9 µM
same,TGI,[9],> 100 µM
same,GI50,[10],11.3 µM
same,TGI,[10],> 76.2 µM
same,GI50,[11],30.2 µM
same,TGI,[11],> 100 µM
same,GI50,[12],32.2 µM
same,TGI,[12],> 81 µM
same,GI50,[13],47.1 µM
same,TGI,[13],> 100 µM
same,GI50,[14],> 94.2 µM
same,TGI,[14],> 100 µM
same,GI50,[15],32.2 µM
same,TGI,[15],58.5 µM
same,GI50,[16],34.2 µM
same,TGI,[16],> 68.8 µM
same,GI50,[17],0.544 µM
same,GI50,[18],43.6 µM
same,TGI,[18],> 100 µM
same,GI50,[19],28.4 µM
same,TGI,[19],> 100 µM
same,GI50,[20],> 73.2 µM
same,TGI,[20],> 100 µM
same,GI50,[21],17.2 µM
same,TGI,[21],> 100 µM
same,GI50,[22],28.2 µM
same,TGI,[22],> 100 µM
same,GI50,[23],45.9 µM
same,TGI,[23],> 100 µM
same,GI50,[24],29.2 µM
same,TGI,[24],> 86.1 µM
same,GI50,[25],21.9 µM
same,TGI,[25],> 73.2 µM
same,GI50,[26],17.7 µM
same,TGI,[26],> 78.6 µM
same,GI50,[27],7.12 µM
same,TGI,[27],> 57.8 µM
same,GI50,[28],25.5 µM
same,TGI,[28],> 100 µM
same,GI50,[29],21.8 µM
same,TGI,[29],74.5 µM
same,GI50,[30],29.8 µM
same,TGI,[30],> 100 µM
same,GI50,[31],24.7 µM
same,TGI,[31],> 93.6 µM
same,GI50,[32],20.8 µM
same,TGI,[32],61.7 µM
same,GI50,[33],23 µM
same,TGI,[33],74 µM
same,GI50,[34],7.99 µM
same,TGI,[34],72.2 µM
same,GI50,[35],21.2 µM
same,TGI,[35],> 69.6 µM
same,GI50,[36],> 100 µM
same,TGI,[36],> 100 µM
same,GI50,[37],8.99 µM
same,TGI,[37],> 83.1 µM
same,GI50,[38],22.4 µM
same,TGI,[38],> 80.1 µM
same,GI50,[39],18.9 µM
same,TGI,[39],> 100 µM
same,GI50,[40],18 µM
same,TGI,[40],62.8 µM
same,GI50,[41],23 µM
same,TGI,[41],> 76.7 µM
same,GI50,[42],8.28 µM
same,TGI,[42],76.2 µM
same,TGI,[43],1.47 µM
same,GI50,[44],> 63.4 µM
same,TGI,[44],> 89.5 µM
same,GI50,[45],52.7 µM
same,TGI,[45],> 100 µM
same,GI50,[46],1.68 µM
same,TGI,[46],9.75 µM
same,GI50,[47],35.4 µM
same,TGI,[47],73.1 µM
same,GI50,[48],37.8 µM
same,TGI,[48],> 100 µM
same,GI50,[49],48.9 µM
same,TGI,[49],> 80.4 µM
same,GI50,[50],13.8 µM
same,TGI,[50],51 µM
same,GI50,[51],3.48 µM
same,TGI,[51],> 41 µM
same,GI50,[52],14.6 µM
same,TGI,[52],57.2 µM
same,GI50,[53],26.2 µM
same,TGI,[53],74.2 µM
same,GI50,[54],25.3 µM
same,TGI,[54],> 74.7 µM
same,GI50,[55],8.41 µM
same,TGI,[55],> 100 µM
same,GI50,[56],22.6 µM
same,TGI,[56],> 100 µM
same,GI50,[57],14.5 µM
same,TGI,[57],> 100 µM
CCCN1C/C(=C\c2ccc(O)c(OC)c2)C(=O)/C(=C/c2ccc(O)c(OC)c2)C1,GI50,[1],> 100 µM
same,TGI,[1],> 100 µM
same,GI50,[2],> 100 µM
same,TGI,[2],> 100 µM
same,GI50,[3],> 100 µM
same,TGI,[3],> 100 µM
same,GI50,[4],> 100 µM
same,TGI,[4],> 100 µM
same,GI50,[5],> 100 µM
same,TGI,[5],> 100 µM
same,GI50,[6],> 100 µM
same,TGI,[6],> 100 µM
same,GI50,[7],> 100 µM
same,TGI,[7],> 100 µM
same,GI50,[8],> 100 µM
same,TGI,[8],> 100 µM
same,GI50,[9],> 100 µM
same,TGI,[9],> 100 µM
same,GI50,[10],> 100 µM
same,TGI,[10],> 100 µM
same,GI50,[11],> 100 µM
same,TGI,[11],> 100 µM
same,GI50,[13],> 100 µM
same,TGI,[13],> 100 µM
same,GI50,[14],> 100 µM
same,TGI,[14],> 100 µM
same,GI50,[15],> 100 µM
same,TGI,[15],> 100 µM
same,GI50,[16],> 100 µM
same,TGI,[16],> 100 µM
same,GI50,[17],> 100 µM
same,TGI,[17],> 100 µM
same,GI50,[18],> 100 µM
same,TGI,[18],> 100 µM
same,GI50,[19],> 100 µM
same,TGI,[19],> 100 µM
same,GI50,[21],> 100 µM
same,TGI,[21],> 100 µM
same,GI50,[22],> 100 µM
same,TGI,[22],> 100 µM
same,GI50,[24],> 100 µM
same,TGI,[24],> 100 µM
same,GI50,[25],> 100 µM
same,TGI,[25],> 100 µM
same,GI50,[26],> 100 µM
same,TGI,[26],> 100 µM
same,GI50,[27],> 100 µM
same,TGI,[27],> 100 µM
same,GI50,[28],> 100 µM
same,TGI,[28],> 100 µM
same,GI50,[29],> 100 µM
same,TGI,[29],> 100 µM
same,GI50,[30],> 100 µM
same,TGI,[30],> 100 µM
same,GI50,[31],> 100 µM
same,TGI,[31],> 100 µM
same,GI50,[32],> 100 µM
same,TGI,[32],> 100 µM
same,GI50,[33],> 100 µM
same,TGI,[33],> 100 µM
same,GI50,[34],> 100 µM
same,TGI,[34],> 100 µM
same,GI50,[35],> 100 µM
same,TGI,[35],> 100 µM
same,GI50,[36],> 100 µM
same,TGI,[36],> 100 µM
same,GI50,[37],> 100 µM
same,TGI,[37],> 100 µM
same,GI50,[38],> 100 µM
same,TGI,[38],> 100 µM
same,GI50,[39],> 100 µM
same,TGI,[39],> 100 µM
same,GI50,[40],> 100 µM
same,TGI,[40],> 100 µM
same,GI50,[41],> 100 µM
same,TGI,[41],> 100 µM
same,GI50,[42],> 100 µM
same,TGI,[42],> 100 µM
same,GI50,[43],> 100 µM
same,TGI,[43],> 100 µM
same,GI50,[44],> 100 µM
same,TGI,[44],> 100 µM
same,GI50,[45],> 100 µM
same,TGI,[45],> 100 µM
same,GI50,[46],> 100 µM
same,TGI,[46],> 100 µM
same,GI50,[47],> 100 µM
same,TGI,[47],> 100 µM
same,GI50,[48],> 100 µM
same,TGI,[48],> 100 µM
same,GI50,[49],> 100 µM
same,TGI,[49],> 100 µM
same,GI50,[50],> 100 µM
same,TGI,[50],> 100 µM
same,GI50,[51],> 100 µM
same,TGI,[51],> 100 µM
same,GI50,[52],> 100 µM
same,TGI,[52],> 100 µM
same,GI50,[53],> 100 µM
same,TGI,[53],> 100 µM
same,GI50,[54],> 100 µM
same,TGI,[54],> 100 µM
same,GI50,[55],> 100 µM
same,TGI,[55],> 100 µM
same,GI50,[56],> 100 µM
same,TGI,[56],> 100 µM
same,GI50,[57],> 100 µM
same,TGI,[57],> 100 µM
